Source: patent publication US7563791B2, “Pyrrolotriazine derivatives useful for treating hyper-proliferative disorders and diseases associated with angiogenesis” (Bayer Pharmaceuticals Corporation, priority 2004, dated 2009)

Test system: VEGF stimulated Phospho-ERK in HUVEC
Test: Growth factor stimulated p-ERK assay in HUVECs (VEGF stimulation, ERK1/2 Bioplex)
Type: cell-based
Conditions: Homo sapiens, compound 2 hrs, then 50 ng/ml VEGF 10 min; for inhibition at 0.1 µM: @ 100 nM
Procedure: Growth Factor Stimulated p-ERK assay in HUVECs
Exponentially growing human endothelial HUVECs cells (human umbilical vein endothelial cells, cat# CC-2517, Cambrex, Walkersville, Md.) were seeded at twenty five thousand cells/well in 96 well plates in EBM-2 MV medium with growth factors (cat# CC-3202, Cambrex) and grown at 37° C. in 5% CO2. Sixteen hours post-plating, the cells were changed to serum-free medium (RPMI 1640 containing 0.1% BSA (bovine serum albumin) and compounds were added at different concentrations for 2 hrs, after which the cells were stimulated for 10 min with 50 ng/ml of either VEGF (vascular endothelial growth factor, Protein Sciences, Meriden, Conn.) or bFGF (basic fibroblast growth factor cat# PHG0026, Biosource International, Camarillo, Calif.). The rest of the assay was performed per manufacturer indications for the ERK½ Bioplex assay (cat#171-304004, Bio-Rad, Hercules, Calif.). After removing culture medium by aspiration, the cells were quickly rinsed with 100 μl of cell wash buffer A to stop treatment reaction. Eighty microliters of cell lysis buffer were then immediately added to each well of the 96 well plate which was put on ice. Cells in each well were lysed by pipetting up and down 5 times with a multi-channel pipet. The plate was then agitated on a microtiter plate shaker at 300 rpm for 20 min at 4° C. Cellular debris were pelleted by centrifugation at 4500 g for 15 min at 4° C. and the supernatant was collected. Forty five microliters of supernatant was diluted with an equal volume of Bio-Plex phosphoprotein assay Buffer B, The coupled and color coated beads were added into a 96 well filter plate, and the prepared lysates were added. The beads and lysate mixture was incubated at room temperature for 15-18 hrs. The following day, the plate was vacuum-filtered and then washed 3×. Twenty-five microliters of detection antibody solution were added to each well and the plate was then incubated for 30 min at room temperature. The plate was then vaccum-filtered and washed as described previously. Fifty microliters of streptavidin-PE solution was added to each well, the plate was incubated for 10 min at room temperature and then was then vaccum-filtered and washed as described above. One hundred twenty-five microliters of resuspension buffer was added to each well and data were acquired on the Luminex 100 instrument (Bio-Rad).

With `CCOC(=O)c1cn2ncnc(N)c2c1-c1ccc(NC(=O)Nc2cc(C(F)(F)F)ccc2F)cc1` [Example 1, ethyl 4-amino-5-{4-[({[2-fluoro-5-(trifluoromethyl)phenyl]amino}carbonyl)amino]phenyl}pyrrolo[2,1-f][1,2,4]triazine-6-carboxylate] as the compound, how does the inhibition at 0.1 µM read?
Its inhibition at 0.1 µM is > 50%.

For `CN(C)CCNCc1cn2ncnc(N)c2c1-c1ccc(NC(=O)Nc2cc(C(F)(F)F)ccc2F)cc1` [Example 37, N-{4-[4-amino-6-({[2-(dimethylamino)ethyl]amino}methyl)pyrrolo[2,1-f][1,2,4]triazin-5-yl]phenyl}-N′-[2-fluoro-5-(trifluoromethyl)phenyl]urea], which inhibition at 0.1 µM is on record?
Its inhibition at 0.1 µM is < 50%.

And the inhibition at 1 µM?
Its inhibition at 1 µM is > 50%.

For `CCOC(=O)c1cn2ncnc(N)c2c1-c1ccc(NC(=O)Nc2cccc(OCCN(CC)CC)c2)cc1` [Example 98, ethyl 4-amino-5-(4-{[({3-[2-(diethylamino)ethoxy]phenyl}amino)carbonyl]amino}phenyl)pyrrolo[2,1-f][1,2,4]triazine-6-carboxylate], which inhibition at 0.1 µM is on record?
The inhibition at 0.1 µM was < 50%.

And the inhibition at 1 µM?
The inhibition at 1 µM was < 50%.

What about the inhibition at 10 µM of the same compound?
The inhibition at 10 µM was > 50%.

`NC(=O)c1cn2ncnc(N)c2c1-c1ccc(NC(=O)Nc2cc(C(F)(F)F)ccc2F)cc1` [Example 104, 4-amino-5-{4-[({[2-fluoro-5-(trifluoromethyl)phenyl]amino}carbonyl)amino]phenyl}pyrrolo[2,1-f][1,2,4]triazine-6-carboxamide] was tested. Which inhibition at 0.1 µM did it give?
Its inhibition at 0.1 µM is < 50%.

And the inhibition at 1 µM?
Its inhibition at 1 µM is < 50%.

And the inhibition at 10 µM?
The inhibition at 10 µM was > 50%.

`Nc1ncnn2cc(CNc3cccnc3)c(-c3ccc(NC(=O)Nc4cc(C(F)(F)F)ccc4F)cc3)c12` [Example 47, N-(4-{4-amino-6-[(pyridin-3-ylamino)methyl]pyrrolo[2,1-f][1,2,4]triazin-5-yl}phenyl)-N′-[2-fluoro-5-(trifluoromethyl)phenyl]urea] was tested. Which inhibition at 0.1 µM did it give?
The inhibition at 0.1 µM was < 50%.

What about the inhibition at 1 µM of the same compound?
The inhibition at 1 µM was > 50%.

Which results are given for `CCOC(=O)c1cn2ncnc(N)c2c1-c1ccc(NC(=O)Nc2ccc(OC(F)(F)F)cc2)cc1` [Example 11, ethyl 4-amino-5-{4-[({[4-(trifluoromethoxy)phenyl]amino}carbonyl)amino]phenyl}pyrrolo[2,1-f][1,2,4]triazine-6-carboxylate]?
inhibition at 0.1 µM: < 50%; inhibition at 1 µM: > 50%

With `N#Cc1cn2ncnc(N)c2c1-c1ccc(NC(=O)Nc2cccc(C(F)(F)F)n2)cc1` [Example 168, N-[4-(4-amino-6-cyanopyrrolo[2,1-f][1,2,4]triazin-5-yl)phenyl]-N′-[6-(trifluoromethyl)pyridin-2-yl]urea] as the compound, how does the inhibition at 0.1 µM read?
The inhibition at 0.1 µM was < 50%.

What about the inhibition at 1 µM of the same compound?
Its inhibition at 1 µM is > 50%.

How did the inhibition at 0.1 µM turn out when `CCOC(=O)c1cn2ncnc(N)c2c1-c1ccc(NC(=O)Nc2cccc(OC(F)(F)F)c2)cc1` [Example 9, ethyl 4-amino-5-{4-[({[3-(trifluoromethoxy)phenyl]amino}carbonyl)amino]phenyl}pyrrolo[2,1-f][1,2,4]triazine-6-carboxylate] was run?
Its inhibition at 0.1 µM is > 50%.

Which results are given for `CCOC(=O)c1cn2ncnc(N)c2c1-c1ccc(NC(=O)Nc2ccccc2C(C)C)cc1` [Example 24, ethyl 4-amino-5-[4-({[(2-isopropylphenyl)amino]carbonyl}amino)phenyl]pyrrolo[2,1-f][1,2,4]triazine-6-carboxylate]?
inhibition at 0.1 µM: < 50%; inhibition at 1 µM: > 50%

With `Nc1ncnn2cc(CCCN3CCOCC3)c(-c3ccc(NC(=O)Nc4cc(C(F)(F)F)ccc4F)cc3)c12` [Example 66, N-{4-[4-amino-6-(3-morpholin-4-ylpropyl)pyrrolo[2,1-f][1,2,4]triazin-5-yl]phenyl}-N′-[2-fluoro-5-(trifluoromethyl)phenyl]urea] as the compound, how does the inhibition at 0.1 µM read?
Its inhibition at 0.1 µM is < 50%.

And the inhibition at 1 µM?
Its inhibition at 1 µM is > 50%.

What does the source list for `CCOC(=O)c1cn2ncnc(N)c2c1-c1ccc(NC(=O)Nc2cc(OC)ncn2)cc1` [Example 29, ethyl 4-amino-5-[4-({[(6-methoxypyrimidin-4-yl)amino]carbonyl}amino)phenyl]pyrrolo[2,1-f][1,2,4]triazine-6-carboxylate]?
inhibition at 0.1 µM: < 50%; inhibition at 1 µM: > 50%

Which inhibition at 0.1 µM does the source give for `CC(C)(CO)NC(=O)c1cn2ncnc(N)c2c1-c1ccc(NC(=O)Nc2cc(C(F)(F)F)ccc2Cl)cc1` [Example 143, 4-amino-5-{4-[({[2-chloro-5-(trifluoromethyl)phenyl]amino}carbonyl)amino]phenyl}-N-(2-hydroxy-1,1-dimethylethyl)pyrrolo[2,1-f][1,2,4]triazine-6-carboxamide] here?
Its inhibition at 0.1 µM is < 50%.

What about the inhibition at 1 µM of the same compound?
The inhibition at 1 µM was > 50%.

What does the source list for `COCCNC(=O)c1cn2ncnc(N)c2c1-c1ccc(NC(=O)Nc2cccc(SC(F)(F)F)c2)cc1` [Example 131, 4-amino-N-(2-methoxyethyl)-5-(4-{[({3-[(trifluoromethyl)thio]phenyl}amino)carbonyl]amino}phenyl)pyrrolo[2,1-f][1,2,4]triazine-6-carboxamide]?
inhibition at 0.1 µM: < 50%; inhibition at 1 µM: > 50%

Which results are given for `Nc1ncnn2cc(C(=O)NCC(F)(F)F)c(-c3ccc(NC(=O)Nc4ccnc(C(F)(F)F)c4)cc3)c12` [Example 140, 4-amino-N-(2,2,2-trifluoroethyl)-5-{4-[({[2-(trifluoromethyl)pyridin-4-yl]amino}carbonyl)amino]phenyl}pyrrolo[2,1-f][1,2,4]triazine-6-carboxamide]?
inhibition at 0.1 µM: < 50%; inhibition at 1 µM: < 50%; inhibition at 10 µM: > 50%

For `CCOC(=O)c1cn2ncnc(N)c2c1-c1ccc(NC(=O)Nc2cc(C(F)(F)F)cc(C(F)(F)F)c2)cc1` [Example 26, ethyl 4-amino-5-{4-[({[3,5-bis(trifluoromethyl)phenyl]amino}carbonyl)amino]phenyl}pyrrolo[2,1-f][1,2,4]triazine-6-carboxylate], which inhibition at 0.1 µM is on record?
The inhibition at 0.1 µM was < 50%.

What about the inhibition at 1 µM of the same compound?
Its inhibition at 1 µM is > 50%.

`Nc1ncnn2cc(C(=O)NCC3CCCO3)c(-c3ccc(NC(=O)Nc4cc(C(F)(F)F)ccc4F)cc3)c12` (centres unmarked) [Example 146, 4-amino-5-{4-[({[2-fluoro-5-(trifluoromethyl)phenyl]amino}carbonyl)amino]phenyl}-N-(tetrahydrofuran-2-ylmethyl)pyrrolo[2,1-f][1,2,4]triazine-6-carboxamide] was tested. Which inhibition at 0.1 µM did it give?
Its inhibition at 0.1 µM is < 50%.

And the inhibition at 1 µM?
The inhibition at 1 µM was > 50%.

With `CCOC(=O)c1cn2ncnc(N)c2c1-c1ccc(NC(=O)Nc2ccccc2)cc1` [Example 23, ethyl 4-amino-5-{4-[(anilinocarbonyl)amino]phenyl}pyrrolo[2,1-f][1,2,4]triazine-6-carboxylate] as the compound, how does the inhibition at 0.1 µM read?
Its inhibition at 0.1 µM is > 50%.

How did the inhibition at 0.1 µM turn out when `Nc1ncnn2cc(CNCCC(F)(F)F)c(-c3ccc(NC(=O)Nc4cc(C(F)(F)F)ccc4F)cc3)c12` [Example 39, N-[4-(4-amino-6-{[(3,3,3-trifluoropropyl)amino]methyl}pyrrolo[2,1-f][1,2,4]triazin-5-yl)phenyl]-N′-[2-fluoro-5-(trifluoromethyl)phenyl]urea] was run?
Its inhibition at 0.1 µM is < 50%.

What about the inhibition at 1 µM of the same compound?
Its inhibition at 1 µM is > 50%.

With `COCCN1CCN(Cc2cn3ncnc(N)c3c2-c2ccc(NC(=O)Nc3cc(C(F)(F)F)ccc3F)cc2)CC1` [Example 41, N-[4-(4-amino-6-{[4-(2-methoxyethyl)piperazin-1-yl]methyl}pyrrolo[2,1-f][1,2,4]triazin-5-yl)phenyl]-N′-[2-fluoro-5-(trifluoromethyl)phenyl]urea] as the compound, how does the inhibition at 0.1 µM read?
Its inhibition at 0.1 µM is < 50%.

And the inhibition at 1 µM?
The inhibition at 1 µM was > 50%.

How did the inhibition at 0.1 µM turn out when `CCOC(=O)c1cn2ncnc(N)c2c1-c1ccc(NC(=O)Nc2ccc3c(c2)OC(F)(F)C(F)(F)O3)cc1` [Example 22, ethyl 4-amino-5-[4-({[(2,2,3,3-tetrafluoro-2,3-dihydro-1,4-benzodioxin-6-yl)amino]carbonyl}amino)phenyl]pyrrolo[2,1-f][1,2,4]triazine-6-carboxylate] was run?
The inhibition at 0.1 µM was < 50%.

And the inhibition at 1 µM?
The inhibition at 1 µM was > 50%.

Which results are given for `Nc1ncnn2cc(C(=O)NCCCN3CCCC3)c(-c3ccc(NC(=O)Nc4cc(C(F)(F)F)ccc4F)cc3)c12` [Example 62, 4-amino-5-{4-[({[2-fluoro-5-(trifluoromethyl)phenyl]amino}carbonyl)amino]phenyl}-N-(3-pyrrolidin-1-ylpropyl)pyrrolo[2,1-f][1,2,4]triazine-6-carboxamide]?
inhibition at 0.1 µM: < 50%; inhibition at 1 µM: < 50%; inhibition at 10 µM: > 50%

`COCCNCc1cn2ncnc(N)c2c1-c1ccc(NC(=O)Nc2cc(C(F)(F)F)ccc2F)cc1` [Example 32, N-[4-(4-amino-6-{[(2-methoxyethyl)amino]methyl}pyrrolo[2,1-f][1,2,4]triazin-5-yl)phenyl]-N′-[2-fluoro-5-(trifluoromethyl)phenyl]urea] was tested. Which inhibition at 0.1 µM did it give?
The inhibition at 0.1 µM was > 50%.

For `CCOC(=O)c1cn2ncnc(N)c2c1-c1ccc(NC(=O)Nc2ccc(OC)c(CN3CCOCC3)c2)cc1` [Example 96, ethyl 4-amino-5-{4-[({[4-methoxy-3-(morpholin-4-ylmethyl)phenyl]amino}carbonyl)amino]phenyl}pyrrolo[2,1-f][1,2,4]triazine-6-carboxylate], which inhibition at 0.1 µM is on record?
Its inhibition at 0.1 µM is < 50%.

What about the inhibition at 1 µM of the same compound?
Its inhibition at 1 µM is < 50%.

And the inhibition at 10 µM?
Its inhibition at 10 µM is > 50%.
